Experimental data as given in patent US20250154173A1 (Merck Sharp & Dohme LLC, priority 2023, published 2025).

Target: T1, GST-RIPK1 (recombinant GST-RIPK1 kinase domain (residues 1-327)) (Homo sapiens, UniProt Q13546)
T1 construct: recombinant GST-RIPK1 kinase domain (residues 1-327) enzyme produced from baculovirus-transfected Sf21 cells; host or cells: baculovirus-transfected Sf21 insect cells
T1 sequence (Q13546 1-327): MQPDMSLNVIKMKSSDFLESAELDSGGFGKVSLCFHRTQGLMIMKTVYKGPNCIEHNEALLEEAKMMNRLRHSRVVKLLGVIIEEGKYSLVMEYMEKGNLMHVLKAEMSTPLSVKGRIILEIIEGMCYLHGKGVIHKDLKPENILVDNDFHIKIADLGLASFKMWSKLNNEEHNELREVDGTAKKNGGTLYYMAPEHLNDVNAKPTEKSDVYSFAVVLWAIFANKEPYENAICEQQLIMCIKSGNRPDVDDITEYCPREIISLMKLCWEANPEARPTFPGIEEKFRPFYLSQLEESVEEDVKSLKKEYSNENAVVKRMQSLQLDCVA
Test: RIPK1-ADP-Glo Enzymatic Assay
Assay type: biochemical
Conditions: ten-point titration, top compound concentration of 100000 nM; 25 nM GST-RIPK1, 300 μM ATP, 3 μM dephosphorylated-MBP; 30 min pre-incubation, 150 min reaction
In short: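 GST-RIPK1 kinase domain (residues 1-327, Sf21-expressed), 25 nM, preincubated 30 min with compound, then reacted 150 min with 300 μM ATP and 3 μM dephosphorylated MBP in pH 7.3 Hepes buffer, 1% DMSO. ADP measured by ADP-Glo luminescence; EC50 from ten-point titration (top 100000 nM), four-parameter fit.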

SMILES | EC50 [nM]
N#CCCc1ccc(COC2CC3(C2)OC2CC[C@@H](c4cnccn4)N2C3=O)cc1 (stereo partly drawn) [Example 18.47, 3-[4-({[(5′S)-3′-oxo-5′-(pyrazin-2-yl)tetrahydro-3′H-spiro[cyclobutane-1,2′-pyrrolo[2,1-b][1,3]oxazol]-3-yl]oxy}methyl)phenyl]propanenitrile] | 60
O=C1N2C(CC[C@H]2c2cnccn2)OC12CC(OCc1ccc3nc(C(F)(F)F)sc3c1)C2 (stereo partly shown) [Example 18.48] | 31
N#CCc1ncc(COC2CC3(C2)OC2CC[C@@H](c4cnccn4)N2C3=O)cc1Cl (stereo partly drawn) [Example 18.49, [3-chloro-5-({[(5′S)-3′-oxo-5′-(pyrazin-2-yl)tetrahydro-3′H-spiro[cyclobutane-1,2′-pyrrolo[2,1-b][1,3]oxazol]-3-yl]oxy}methyl)pyridin-2-yl]acetonitrile] | 59
COCCOc1ccc(COC2CC3(C2)OC2CC[C@@H](c4cnccn4)N2C3=O)cc1 (stereo partly drawn) [Example 18.50, (5′S)-3-{[4-(2-methoxyethoxy)phenyl]methoxy}-5′-(pyrazin-2-yl)tetrahydro-3′H-spiro[cyclobutane-1,2′-pyrrolo[2,1-b][1,3]oxazol]-3′-one] | 65
N#Cc1cccc(F)c1COC1CC2(C1)OC1CC[C@@H](c3cnccn3)N1C2=O (stereo partly drawn) [Example 18.51, 3-fluoro-2-({[(5′S)-3′-oxo-5′-(pyrazin-2-yl)tetrahydro-3′H-spiro[cyclobutane-1,2′-pyrrolo[2,1-b][1,3]oxazol]-3-yl]oxy}methyl)benzonitrile] | 210
O=C1N2C(CC[C@H]2c2cnccn2)OC12CC(OCc1cnn(-c3ccncc3)c1)C2 (stereo partly drawn) [Example 18.52, (5′S)-5′-(pyrazin-2-yl)-3-{[1-(pyridin-4-yl)-1H-pyrazol-4-yl]methoxy}tetrahydro-3′H-spiro[cyclobutane-1,2′-pyrrolo[2,1-b][1,3]oxazol]-3′-one] | 96
O=C1N2C(CC[C@H]2c2cnccn2)OC12CC(OCc1ccccc1-n1cccn1)C2 (stereo partly drawn) [Example 18.53, (5′S)-5′-(pyrazin-2-yl)-3-{[2-(1H-pyrazol-1-yl)phenyl]methoxy}tetrahydro-3′H-spiro[cyclobutane-1,2′-pyrrolo[2,1-b][1,3]oxazol]-3′-one] | 117
O=C1N2C(CC[C@H]2c2cnccn2)OC12CC(OCc1ccc3nc(C(F)(F)F)cn3c1)C2 (stereo partly drawn) [Example 18.54, (5′S)-5′-(pyrazin-2-yl)-3-{[2-(trifluoromethyl)imidazo[1,2-a]pyridin-6-yl]methoxy}tetrahydro-3′H-spiro[cyclobutane-1,2′-pyrrolo[2,1-b][1,3]oxazol]-3′-one] | 159
N#Cc1ccoc1COC1CC2(C1)OC1CC[C@@H](c3cnccn3)N1C2=O (stereo partly drawn) [Example 18.55, 2-({[(5′S)-3′-oxo-5′-(pyrazin-2-yl)tetrahydro-3′H-spiro[cyclobutane-1,2′-pyrrolo[2,1-b][1,3]oxazol]-3-yl]oxy}methyl)furan-3-carbonitrile] | 126
CCc1nnc(-c2ccc(COC3CC4(C3)OC3CC[C@@H](c5cnccn5)N3C4=O)cc2)o1 (stereo partly drawn) [Example 18.56, (5′S)-3-{[4-(5-ethyl-1,3,4-oxadiazol-2-yl)phenyl]methoxy}-5′-(pyrazin-2-yl)tetrahydro-3′H-spiro[cyclobutane-1,2′-pyrrolo[2,1-b][1,3]oxazol]-3′-one] | 11
O=C1N2C(CC[C@H]2c2cnccn2)OC12CC(OCc1ccc(OC3CCOCC3)nc1)C2 (stereo partly drawn) [Example 18.57, (5′S)-3-({6-[(oxan-4-yl)oxy]pyridin-3-yl}methoxy)-5′-(pyrazin-2-yl)tetrahydro-3′H-spiro[cyclobutane-1,2′-pyrrolo[2,1-b][1,3]oxazol]-3′-one] | 109
O=C1N2[C@@H](CC[C@H]2c2cnccn2)OC12CC(OCc1ccc(-c3nnco3)cc1)C2 (stereo partly drawn) [Example 18.58, (5′S, 7a′R)-3-{[4-(1,3,4-oxadiazol-2-yl)phenyl]methoxy}-5′-(pyrazin-2-yl)tetrahydro-3′H-spiro[cyclobutane-1,2′-pyrrolo[2,1-b][1,3]oxazol]-3′-one] | 40
O=C1N2[C@@H](CC[C@H]2c2cnccn2)O[C@]12C[C@@H](OCc1ccc3oncc3c1)C2 [Example 18.59, (5′S)-3-[(1,2-benzoxazol-5-yl)methoxy]-5′-(pyrazin-2-yl)tetrahydro-3′H-spiro[cyclobutane-1,2′-pyrrolo[2,1-b][1,3]oxazol]-3′-one] | 12
O=C1N2[C@@H](CC[C@H]2c2cnccn2)OC12CC(OCc1ccnc3ccnn13)C2 (stereo partly drawn) [Example 18.60, (5′S)-5′-(pyrazin-2-yl)-3-[(pyrazolo[1,5-a]pyrimidin-7-yl)methoxy]tetrahydro-3′H-spiro[cyclobutane-1,2′-pyrrolo[2,1-b][1,3]oxazol]-3′-one] | 91
O=C1N2C(CC[C@H]2c2cnccn2)OC12CC(OCc1ccc3scnc3c1)C2 (stereo partly drawn) [Example 18.61, (5′S)-3-[(1,3-benzothiazol-5-yl)methoxy]-5′-(pyrazin-2-yl)tetrahydro-3′H-spiro[cyclobutane-1,2′-pyrrolo[2,1-b][1,3]oxazol]-3′-one] | 37
N#CCc1cccc(COC2CC3(C2)OC2CC[C@@H](c4cnccn4)N2C3=O)c1 (stereo partly drawn) [Example 18.62, [3-({[(5′S)-3′-oxo-5′-(pyrazin-2 yl)tetrahydro-3′H-spiro[cyclobutane-1,2′-pyrrolo[2,1-b][1,3]oxazol]-3-yl]oxy}methyl)phenyl]acetonitrile] | 47
O=C1N2C(CC[C@H]2c2cnccn2)OC12CC(OCc1ccc(C(F)F)cn1)C2 (stereo partly drawn) [Example 18.63, (5′S)-3-{[5-(difluoromethyl)pyridin-2-yl]methoxy}-5′-(pyrazin-2-yl)tetrahydro-3′H-spiro[cyclobutane-1,2′-pyrrolo[2,1-b][1,3]oxazol]-3′-one] | 354
O=C1N2C(CC[C@H]2c2cnccn2)OC12CC(OCc1nnc(Cc3ccccc3)s1)C2 (stereo partly drawn) [Example 18.64, (5′S)-3-[(5-benzyl-1,3,4-thiadiazol-2-yl)methoxy]-5′-(pyrazin-2-yl)tetrahydro-3′H-spiro[cyclobutane-1,2′-pyrrolo[2,1-b][1,3]oxazol]-3′-one] | 122
N#Cc1ccc(COC2CC3(C2)OC2CC[C@@H](c4cnccn4)N2C3=O)c2cccnc12 (stereo partly drawn) [Example 18.65, 5-({[(5′S)-3′-oxo-5′-(pyrazin-2-yl)tetrahydro-3′H-spiro[cyclobutane-1,2′-pyrrolo[2,1-b][1,3]oxazol]-3-yl]oxy}methyl)quinoline-8-carbonitrile] | 32
CCC(C)Oc1cccc(COC2CC3(C2)O[C@@H]2CC[C@@H](c4cnccn4)N2C3=O)n1 (stereo partly drawn) [Example 18.66, (5′S,7a′R)-3-({6-[(butan-2-yl)oxy]pyridin-2-yl}methoxy)-5′-(pyrazin-2-yl)tetrahydro-3′H-spiro[cyclobutane-1,2′-pyrrolo[2,1-b][1,3]oxazol]-3′-one] | 141
CS(=O)(=O)c1ccc(COC2CC3(C2)OC2CC[C@@H](c4cnccn4)N2C3=O)cc1 (stereo partly drawn) [Example 18.67, (5′S)-3-{[4-(methylsulfonyl)phenyl]methoxy}-5′-(pyrazin-2-yl)tetrahydro-3′H-spiro[cyclobutane-1,2′-pyrrolo[2,1-b][1,3]oxazol]-3′-one] | 88
O=C1N2C(CC[C@H]2c2cnccn2)OC12CC(OCc1csc3ncccc13)C2 (stereo partly drawn) [Example 18.68, (5′S)-5′-(pyrazin-2-yl)-3-[(thieno[2,3-b]pyridin-3-yl)methoxy]tetrahydro-3′H-spiro[cyclobutane-1,2′-pyrrolo[2,1-b][1,3]oxazol]-3′-one] | 43
